Data set [1] concerns U2OS (osteosarcoma) cells. Nature of the data set: clonogenic survival assay, U2OS cells. Format: cell-based, human. As for the experimental part:
(§1) Clonogenic assays were performed in 10 cm tissue culture dishes (for RPE-1 cells, U2OS cells and derived clones). Cells (1000 per dish) were seeded in complete media (10 mL) and allowed to attach overnight, then treated with cisplatin or cisplatin plus inhibitor for the times stated. Following treatments, cells were allowed to grow and form colonies for 10 days. Colonies formed were stained with Coomassie R250 (Sigma) and counted on a COLCount Colony Counter (Oxford Optronix). All experiments represent the mean (±SEM) of at least three biological repeats of duplicate dishes/flasks for each treatment.

For data set [2], the system named is γH2AX foci in RPE-1 cells. Nature of the data set: microscopic analysis of damage-induced subnuclear foci, RPE-1 cells. Format: cell-based, human. As for the experimental part: To assess the number of nuclear foci following cisplatin/inhibitor treatments, cells were plated in glass bottom dishes (as above) and allowed to attach. Following treatment, cells were fixed with 4% (v/v) formaldehyde in PBS, blocked with immunofluoresence (IF) blocking buffer (5% horse serum, 1% saponin in PBS) for 1 h, then incubated with primary antibodies at the desired concentrations in IF blocking buffer (overnight, 4 °C).
Images were imported into ImageJ and foci were counted using a macro adjusting for staining levels between experiments. Anti-γH2AX antibodies were a mouse monoclonal (Millipore; JBW301).

The next data set deals with T1, SNM1C (Homo sapiens, UniProt Q96SD1).
T1 construct: for the MBL and β-CASP domains of SNM1C (aa 1–362) into the baculovirus expression vector pBF-6HZB; made in house; host or cells: Sf9 insect cells (baculovirus)
T1 sequence (Q96SD1 1-362): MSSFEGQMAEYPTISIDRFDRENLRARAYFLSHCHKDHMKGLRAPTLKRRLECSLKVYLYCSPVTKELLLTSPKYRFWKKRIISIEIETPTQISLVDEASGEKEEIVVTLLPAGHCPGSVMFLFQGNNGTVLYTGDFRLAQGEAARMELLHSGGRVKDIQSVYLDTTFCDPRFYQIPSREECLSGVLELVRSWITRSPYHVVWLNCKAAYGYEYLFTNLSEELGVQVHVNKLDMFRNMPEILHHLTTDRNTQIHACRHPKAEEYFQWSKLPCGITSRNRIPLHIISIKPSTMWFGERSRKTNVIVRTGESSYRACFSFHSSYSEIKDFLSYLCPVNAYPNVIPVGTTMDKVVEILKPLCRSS
Nature of the data set: gel-based nuclease assay, SNM1C. To be noted: 2.5 nM SNM1C. In kind it is biochemical. The source says:
To validate the inhibition of SNM1A, SNM1B, and SNM1C observed in the fluorescence-based screening assays, we then performed gel-based assays using 3′ terminally-labelled oligonucleotide substrates that enable both quantitative and qualitative (visual) assessment of the pattern of inhibition, for a subset of compounds. Importantly, whereas the fluorescence-based assay measures a single hydrolytic event at the substrate terminus, the gel-based nuclease assay informs on the pattern of digestion of the entire 51-mer substrate DNA over time.
Standard exonuclease assays were carried out in a 10 μL final volume containing 20 mM HEPES-KOH, pH 7.5, 50 mM KCl, 0.5 mM TCEP, 10 mM MgCl2, 0.05% (v/v) Triton X-100, 5% (v/v) glycerol, and SNM1 proteins as indicated. Inhibitors were dissolved in DMSO and diluted immediately prior to the reaction in the above buffer. Inhibitors were serially diluted two-fold from 100 μM. The DMSO concentration was kept constant at 0.1% (v/v) in the final reaction mixture. Inhibitors were incubated with the indicated SNM1 enzyme for 10 minutes at room temperature; reactions were initiated by addition of 10 nM DNA substrate and incubated at 37 °C for 20 min. Reactions were quenched by addition of 5 μL stop solution (95% formamide, 10 mM EDTA, 0.25% (v/v) xylene cyanol, 0.25% (v/v) bromophenol blue) and heated at 95 °C for 3 min. Reactions were analysed by 20% denaturing polyacrylamide gel electrophoresis solution of 19 : 1 acrylamide:bis-acrylamide, BioRad and 7 M urea (Sigma Aldrich) in 1 × TBE (Tris-borate EDTA) buffer. Electrophoresis was carried out at 525 V for 75 minutes; gels were subsequently fixed for 60 minutes in a 50% (v/v) methanol, 10% (v/v) acetic acid solution, and dried at 80 °C for two hours under vacuum. Dried gels were exposed to a Kodak Phosphor imager screen and scanned using a Typhoon 9500 instrument (GE Healthcare), scanned images were quantified using ImageJ.
Suppl. Figure 10. […] Products were analysed by 20% denaturing PAGE. […]

Data set [3] relates to SNM1A- cells generated in U2OS background. Nature of the data set: clonogenic survival assay, SNM1A- U2OS cells. Format: cell-based, human. The following applies: 50 μM compound. The protocol:
as §1

Turning to `C[C@H](Nc1nc(NCc2ccco2)nc2ccc(Cl)cc12)C(=O)NO` [compound 19], in data set [1] (U2OS wild-type, 50 μM compound 20 hours pre-treatment, 0–15 μM cisplatin), the “effect on cisplatin cytotoxicity” value is given as “potentiation of cisplatin cytotoxicity”. Moreover, in data set [1] (U2OS, 50 μM compound), the “cell death as single agent” value was not above 10%. Besides, in data set [1] (U2OS, 100 μM compound), the “cytotoxicity as single agent” value is “some cell death”. Also, the “average γH2AX foci count at 24 hours” value in data set [2] (RPE-1, cisplatin treated with 50 μM 19) is 21.2 ± 0.7 foci. For the same molecule, the “increase of average γH2AX foci count following pretreatment” value in data set [2] (RPE-1, cisplatin treated, 24 hours) was 2 fold. Also, on SNM1C, the “inhibition of SNM1C in gel-based assay” value was “inhibits each of SNM1A–C”. The “effect on cisplatin sensitivity” value in data set [3] is reported as “similarly sensitive to cisplatin treatment in the presence or absence of 19”.

(Values after PMC11134331, “Cell-active small molecule inhibitors validate the SNM1A DNA repair nuclease as a cancer target” (Chemical Science, 2024).)
